Measured values: EP0082385A1, “1-(3-Nitrophenyl)pyrido(2,3-d)pyrimidine-2,4(1H,3H) diones and 1-(3-nitrophenyl)quinazoline-2-4(1H,3H)diones as cutaneous medicaments” (Troponwerke GmbH & Co. KG, priority 1981, dated 1983)
Read-outs that look alike come from different tables or passages of the source.

What was measured:
[1] = tested on: durch Kaolin induzierten Ödems der Rattenpfote; assay: Kaolin-induced rat paw oedema, substance applied to shorn back skin or given p.o.; type: in vivo, Ratte; conditions: for ED50: 5 h
[2] = tested on: Carrageenan-Pfotenödems der Ratte; assay: Carrageenan rat paw oedema, preparations of TVX; type: in vivo
Description: Aufbereitung von TVX - Hemmung des Carrageenan-Pfotenödems der Ratte

Tachyphylaxie bei Ratten = assay: Tachyphylaxis (loss of oedema-inhibiting effect) after repeated dosing in rats; type: in vivo
[3] = tested on: emetische Erscheinungen beim Hund; conditions: dog, in vivo
Procedure: Die Vermeidung der Nebenwirkungen durch cutane Applikation von Verb. 1 ist nachfolgend beispielhaft für Verb. 1 beschrieben. • 1. Sowohl nach oraler als auch intramuskulärer Applikation von Verb. 1 treten bereits ab einer Dosis von etwa 0.1 mg/kg beim Hund starke emetische Erscheinungen auf. Diese emetische Wirkung beim Hund bleibt auch nach cutaner Applikation von 5 mg/kg der Substanz aus. • 2. Verb. […] Verb.

[4] = 0,3 mg/kg cutan, in Dimethylsulfoxid, rat, 5 h after oedema provocation
[5] = po, p.o., rat, read-out: DE50 (mg/kg) Kaolin-ödem p.o.

COC(=O)c1ccccc1O [Salicyclsäuremethylester, Salicylsäuremethylester, reference compound]
% Hemmung des Kaolin-ödems ([1]; solvent alone (without Verb. 1), cutan, rat): 39.4) %

CCn1c(=O)c2ccccc2n(-c2cccc([N+](=O)[O-])c2)c1=O [Verb. 1, 1-(3-Nitrophenyl)-3-ethylchinazolin-2.4(1H, 3H)-dion]
% Hemmung ([2]; preparation: TVX 0.03, Aceton 6.97, IPM 3.00 (total 10.00)): 51.3%
% Hemmung ([2]; preparation: TVX 0.03, Aceton 9.97 (total 10.00)): 41.7%
% Hemmung ([2]; preparation: TVX 0.03, Essigsäureethylester 6.97, IPM 3.00 (total 10.00)): 64.1%
% Hemmung ([2]; preparation: TVX 0.03, Essigsäureethylester 9.97 (total 10.00)): 31.0%
% Hemmung ([2]; preparation: TVX 0.03, IPM 3.00, Tween 2.00, Isopropanol 4.97 (total 10.00)): 55.1%
% Hemmung ([2]; preparation: TVX 0.03, Milchsäureethylester 6.97, IPM 3.00 (total 10.00)): 50.6%
% Hemmung ([2]; preparation: TVX 0.03, Milchsäureethylester 9.97 (total 10.00)): 42.0%
% Hemmung ([2]; preparation: TVX 0.03, Tween 0.50, Dowanol DPM 9.47 (total 10.00)): 62.7%
% Hemmung des Kaolin-ödems ([1]; 0,3 mg/kg cutan, in Cremophor, rat, n = 5): 14.2%
% Hemmung des Kaolin-ödems ([1]; 0,3 mg/kg cutan, in Dimethylacetamid, rat, n = 5): 50.5%
% Hemmung des Kaolin-ödems ([1]; 0,3 mg/kg cutan, in Dimethylformamid, rat, n = 5): 35.0%
% Hemmung des Kaolin-ödems [1, 4]: 48.3%
% Hemmung des Kaolin-ödems ([1]; 0,3 mg/kg cutan, in Erdnußöl, rat, n = 5): 16.7%
% Hemmung des Kaolin-ödems ([1]; 0,3 mg/kg cutan, in Lutrol, rat, n = 5): 18.3%
% Hemmung des Kaolin-ödems ([1]; 0,3 mg/kg cutan, in N-Methylpyrrolidon, rat, n = 5): 63.2%
% Hemmung des Kaolin-ödems ([1]; 0,3 mg/kg cutan, in Ricinusöl, rat, n = 5): 14.2%
% Hemmung des Kaolin-ödems ([1]; 0,3 mg/kg cutan, in Salicylsäuremethylester, rat, n = 5): 77.1%
ED50 ([1]; Rattus norvegicus, topical, cutan in Dimethylsulfoxid, same antiphlogistic effect as 0,3 mg/kg oral, read-out: DE50 nach cutaner Applikation in Dimethylsulfoxid): 0.3 mg/kg
ED50 [1, 5]: 0.3 mg/kg
ödemhemmende Wirkung nach topischer Vorbehandlung (Tachyphylaxie bei Ratten; 6 days topical pretreatment, in Dimethylsulfoxid, 0.3 mg/kg/Tag): eindeutige ödemhemmende Wirkung
Wirkungsverlust (Tachyphylaxie) (Tachyphylaxie bei Ratten; cutaneous application): vollständig vermieden
Tachyphylaxie (Tachyphylaxie bei Ratten; oral doses over several days, seen after three to four days): deutliche Tachyphylaxie
Dosis, ab der emetische Wirkung auftritt [3]: > 5 mg/kg
Dosis, ab der starke emetische Erscheinungen auftreten [3]: ~0.1 mg/kg

O=c1c2ccccc2n(-c2cccc([N+](=O)[O-])c2)c(=O)n1CCF [Verb. 2, 1-(3-Nitrophenyl)-3-(2-fluorethyl)-chinazolin-2,4(1H, 3H)dion]
% Hemmung des Kaolin-ödems [1, 4]: 56.0%
ED50 [1, 5]: 0.2 mg/kg

CCn1c(=O)c2cccnc2n(-c2cccc([N+](=O)[O-])c2)c1=O [Verb. 3, 1-(3-Nitrophenyl)-3-ethylpyridoL2.3-d/pyrimidin-2,4(1H, 3H)dion]
% Hemmung des Kaolin-ödems [1, 4]: 79.8%
ED50 [1, 5]: 0.1 mg/kg
